Measurements from US9365830B2, “Agents and methods for inhibiting human pluripotent stem cell growth” (VIACYTE, INC., priority 2010, dated 2016).
Entries after “also recorded” stand apart in the source; their conditions may differ.

Tests used:
[1] = test system: differentiating Stage 1 cultures (definitive endoderm); assay: Secondary screen on differentiating Stage 1 cultures in 6-well trays; type: cell-based, human; details: compounds added to differentiating Stage 1 cultures
Source text: The impedance assay on the hESCs using the compounds in Table 4 above gave greater than twenty (20) hits. However, the ideal candidate compound of the present invention should not only be inhibitory or cytotoxic to human pluripotent stem cells, such as hESCs or hIPSCs, but should at the same time have no effect on cell viability of differentiated or differentiating cell populations including Stage 1, 2, 3, 4 and 5 type cells cultures (definitive endoderm, foregut endoderm, posterior foregut, pancreatic endoderm and endocrine cells, respectively). […] Approximately 3×10^4 hES cells were plated per well and grown for 24 hrs in DC-HAIF defined medium (i.e. StemPro® hESC SFM medium (Life Technologies, Carlsbad, Calif.). Stage 1 or definitive endoderm differentiation was then induced by changing the medium and culturing in RPMI, 100 ng/mL Activin A, and 10 ng/mL of FGF2. […] of GSK-3 beta Inhibitor 15 (Calbiochem #361558) as added to the culture for the first 24 hours of differentiation only. 10 μM of each of the candidate compounds were added about 48 hours or 2 days after differentiation was induced (see FIGS. 3 C & D, large arrowhead), and the cells were cultured for an additional 2 days.
Secondary Screen with Selected Compounds. A secondary screen using 9 of the 10 candidate compounds in Table 5 was performed by adding the compounds to differentiating Stage 1 cultures (definitive endoderm) as described above. For the secondary screen, larger standard 6-well trays were used instead of the RT-CEAS 96-well culture plates used in primary screens employing impedance assays. Only 9 of the 10 compounds in Table 5 were tested because the 10th was not available in sufficient quantity at the time the assays were performed. In the larger, 6-well trays, 5 of the 9 compounds listed in Table 5 had no effect on viability of differentiating cells or differentiated definitive endoderm. […] This assay also confirmed that the viability of differentiating cells and differentiated definitive endoderm cells was apparently consistent regardless of the numbers of cells tested, or the size, volume, or source of the culture vessel.

[2] = test system: hESC suspension aggregate cultures, Stages 1-4 (pancreatic endoderm); assay: Q-PCR marker gene expression, suspension aggregate cultures differentiated through Stages 1-4; type: cell-based, human; details: for PDX1 and NKX6.1 gene expression: Stages 2, 3 and 4, compared to the Controls
Source text: FIGS. 5A-5M. are bar graphs showing the relative gene expression levels of markers expressed in pluripotent cells or in cells of pancreatic lineage: OCT4 (FIG. 5A), MIXL (FIG. 5B), EOMES (FIG. 5C), CXCR4 (FIG. 5D), SOX17 (FIG. 5E), HNF1B (FIG. 5F), HNF4A (FIG. 5G), PDX1 (FIG. 5H), PTF1A (FIG. 5I), NKX2.2. (FIG. 5J), NGN3 (FIG. 5K), NKX6.1 (FIG. 5L) and PAX4 (FIG. 5M) with treatment of candidate selective cytotoxic agents from the LOPAC1280™ sublibrary (Table 4) to suspension aggregate cell cultures at Stages 1-4. Expression levels are normalized to the average expression levels of housekeeping genes. The graphs depict fold regulation compared to hESC sample. Ch.Cl=chelerythrine chloride; Deph.=dephostatin; AG=AG 490; SU=SU6656.
FIGS. 6A-6F are bar graphs showing the relative gene expression levels of markers of non-pancreatic lineage cells: SOX1 (FIG. 6A; e.g., at least observed in extraembryonic and neural cellss), ZIC1 (FIG. 6B; e.g., at least observed in early neural cells), PAX6 (FIG. 6C; e.g., at least observed in neural ectoderm cells), SOX7 (FIG. 6D; e.g., at least observed in extraembryonic cells), AFP (FIG. 6E; e.g., at least observed in liver cell and extraembryonic cells) and CDX2 (FIG. 6F; e.g., at least observed in extraembryonic cells) in compound-treated differentiations.
Effects of Candidate Inhibitor/Cytotoxic Agents in Suspension Aggregate Culture. The ideal inhibitor candidate for cell therapy would be compatible with pancreatic cell lineage viability in a manufacturing scale-up process (e.g. a suspension aggregate culture that could be propagated in a large bioreactor), as well as in small-scale cell culture, such as in 96-well plates or 6-well trays. Thus, an additional screen included conditions similar to those in a commercial-scale process. […] The remaining 4 compounds, chelerythrine chloride (Ch.Cl; Cmpd. No. 25), tyrphostin AG 490 (AG; Cmpd. No. 152), dephostatin (Deph; Cmpd. No. 48), and SU 6656 (SU; Cmpd. No. 126) were screened for selective inhibition of pluripotent stem cell growth in a suspension aggregate type culture, which is amenable to manufacturing scale-up process. Briefly, Human ESCs were aggregated in rotational culture and differentiated through Stages 1-4 to make pancreatic endoderm substantially as described in U.S. patent application Ser. No. 11/838,054, entitled COMPOSITIONS AND METHODS USEFUL FOR CULTURING DIFFERENTIABLE CELLS, filed Aug. 13, 2007; and U.S. patent application Ser. No. 12/264,760, entitled STEM CELL AGGREGATE SUSPENSION COMPOSITIONS AND METHODS OF DIFFERENTIATION THEREOF, filed Nov. 4, 2008, which are herein incorporated by reference in their entirety. RNA samples were collected from control and compound-treated cell cultures at various time points during the differentiation as above, for analysis by Q-PCR. FIGS. 5A-5M show the expression of markers characteristic of pluripotent stem cells or at least one of Stages 1-5. FIGS. 6A-6F show the expression of markers not normally expressed in pluripotent stem cells or Stages 1-5. Each graph includes 5 sections: QPCR samples were normalized to day 0 (hESC), which is the “Control” section farthest left on each graph of FIGS. 5A-5M; the other four sections to the right of the Control section correspond to the four compounds used to treat the cells (chelerythrine chloride (Ch.Cl; Cmpd. No. 25); tyrphostin AG 490 (AG490; Cmpd. No. 152), dephostatin (Deph; Cmpd. No. 48), and SU 6656 (SU6656; Cmpd. No. 126) left to right, respectively).

Structure (SMILES)	Viability of Definitive Endoderm [1]	differentiation of non-pancreatic lineage cells, or “off-target” cells ([2]; FIGS. 6A-6F)	PDX1 and NKX6.1 gene expression [2]	AFP gene expression (non-pancreatic marker) ([2]; FIG. 6E)	CDX2 gene expression (non-pancreatic marker) ([2]; FIG. 6F)
CN(N=O)c1cc(O)ccc1O [Dephostatin]	capable of growth and proliferation; also recorded: Viable	do not promote	increased	–	–
N#C/C(=C\c1ccc(O)c(O)c1)C(=O)NCc1ccccc1 [Tyrphostin AG 490]	capable of growth and proliferation; also recorded: Viable	–	reduced	elevated	–
CN(C)S(=O)(=O)c1ccc2c(c1)/C(=C/c1cc3c([nH]1)CCCC3)C(=O)N2 [SU 6656]	capable of growth and proliferation; also recorded: Viable	–	increased	–	elevated
